Columns and labels:
Assay type in all cases: in vivo
Amaranthus retroflexus [1] = assay: Pre-emergence herbicidal activity, AMARE; details: Application pre-emergence, 1000 g/Ha, evaluated after 13 days, scale 0-5
How it was run: (§1)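 Seeds sown in standard soil in pots, sprayed one day later (pre-emergence) with aqueous solution from acetone/water (50:50) formulation with 0.5% Tween 20. Glasshouse at 24/16 °C day/night, 14 h light, 65% humidity, watered twice daily. Damage scored after 13 days, 0 (none) to 5 (total).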

Echinochloa crus-galli [2] = assay: Pre-emergence herbicidal activity, ECHCG; details: Application pre-emergence, 1000 g/Ha, evaluated after 13 days, scale 0-5
How it was run: as §1

Abutilon theophrasti [3] = assay: Pre-emergence herbicidal activity, ABUTH; details: Application pre-emergence, 1000 g/Ha, evaluated after 13 days, scale 0-5
How it was run: as §1

Setaria faberi [4] = assay: Pre-emergence herbicidal activity, SETFA; details: Application pre-emergence, 1000 g/Ha, evaluated after 13 days, scale 0-5
How it was run: as §1

Alopecurus myosuroides [5] = assay: Pre-emergence herbicidal activity, ALOMY; details: Application pre-emergence, 1000 g/Ha, evaluated after 13 days, scale 0-5
Protocol: Seeds of a variety of test species were sown in standard soil in pots. After cultivation for one day (pre-emergence) under controlled conditions in a glasshouse (at 24/16° C., day/night; 14 hours light; 65% humidity), the plants were sprayed with an aqueous spray solution derived from the formulation of the technical active ingredient in acetone/water (50:50) solution containing 0.5% Tween 20 (polyoxyethelyene sorbitan monolaurate, CAS RN 9005-64-5). The test plants were then grown in a glasshouse under controlled conditions (at 24/16° C., day/night; 14 hours light; 65% humidity) and watered twice daily. After 13 days, the test was evaluated (5=total damage to plant; 0=no damage to plant).

Zea mays [6] = assay: Pre-emergence herbicidal activity, ZEAMX; details: Application pre-emergence, 1000 g/Ha, evaluated after 13 days, scale 0-5
How it was run: as §1

Amaranthus retroflexus [7] = assay: Post-emergence herbicidal activity, AMARE; details: Application post-emergence, 1000 g/Ha, evaluated after 13 days, scale 0-5
How it was run: (§2)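 Damage rating 0 (none) to 5 (total), assessed 13 days after spraying. Plants received the compound in acetone/water 50:50 with 0.5% Tween 20 at 8 days post-sowing, then were kept at 24/16 °C, 14 h photoperiod, 65% RH.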

Abutilon theophrasti [8] = assay: Post-emergence herbicidal activity, ABUTH; details: Application post-emergence, 1000 g/Ha, evaluated after 13 days, scale 0-5
How it was run: as §2

Setaria faberi [9] = assay: Post-emergence herbicidal activity, SETFA; details: Application post-emergence, 1000 g/Ha, evaluated after 13 days, scale 0-5
How it was run: as §2

Echinochloa crus-galli [10] = assay: Post-emergence herbicidal activity, ECHCG; details: Application post-emergence, 1000 g/Ha, evaluated after 13 days, scale 0-5
How it was run: as §2

Zea mays [11] = assay: Post-emergence herbicidal activity, ZEAMX; details: Application post-emergence, 1000 g/Ha, evaluated after 13 days, scale 0-5
How it was run: as §2

Alopecurus myosuroides [12] = assay: Post-emergence herbicidal activity, ALOMY; details: Application post-emergence, 1000 g/Ha, evaluated after 13 days, scale 0-5
Protocol: Seeds of a variety of test species were sown in standard soil in pots. After 8 days cultivation (post-emergence) under controlled conditions in a glasshouse (at 24/16° C., day/night; 14 hours light; 65% humidity), the plants were sprayed with an aqueous spray solution derived from the formulation of the technical active ingredient in acetone/water (50:50) solution containing 0.5% Tween 20 (polyoxyethelyene sorbitan monolaurate, CAS RN 9005-64-5). The test plants were then grown in a glasshouse under controlled conditions (at 24/16° C., day/night; 14 hours light; 65% humidity) and watered twice daily. After 13 days, the test was evaluated (5=total damage to plant; 0=no damage to plant).

Row | SMILES | AMARE damage score (Amaranthus retroflexus [1]) | ECHCG damage score (Echinochloa crus-galli [2]) | ABUTH damage score (Abutilon theophrasti [3]) | SETFA damage score (Setaria faberi [4]) | ALOMY damage score (Alopecurus myosuroides [5]) | ZEAMX damage score (Zea mays [6]) | AMARE damage score (Amaranthus retroflexus [7]) | ABUTH damage score (Abutilon theophrasti [8]) | SETFA damage score (Setaria faberi [9]) | ECHCG damage score (Echinochloa crus-galli [10]) | ZEAMX damage score (Zea mays [11]) | ALOMY damage score (Alopecurus myosuroides [12])
1 | COc1ccc(-c2cnc(N3C(=O)N(C)CC3O)cc2C(F)(F)F)c(OC)c1 (stereo not drawn) [Compound A15] | 2 | 1 | 3 | 2 | 1 | 0 | 5 | 5 | 3 | 4 | 1 | 3
2 | CN1CC(O)N(c2cc(C(F)(F)F)c(-c3ccc(C#N)cc3)cn2)C1=O (stereo not drawn) [Compound A16] | 5 | 3 | 3 | 4 | 2 | 3 | 5 | 5 | 5 | 5 | 5 | 5
3 | COc1ccccc1-c1cnc(N2C(=O)N(C)CC2O)cc1C(F)(F)F (stereo not drawn) [Compound A18] | 2 | 3 | 2 | 1 | 2 | 1 | 5 | 5 | 2 | 4 | 5 | 2
4 | CN1CC(O)N(c2cc(C(F)(F)F)c(Br)cn2)C1=O (stereo not drawn) [Compound A19] | 5 | 5 | 5 | 5 | 5 | 5 | 5 | 5 | 5 | 5 | 4 | 5
5 | CN1CC(O)N(c2cc(C(F)(F)F)c(Cl)cn2)C1=O (stereo not drawn) [Compound A36] | 5 | 5 | 5 | 4 | 4 | 2 | 5 | 5 | 5 | 5 | 5 | 5
6 | CN1CC(O)N(c2cc(C(C)(F)F)ccn2)C1=O (stereo not drawn) [Compound A37] | 5 | 3 | 5 | 1 | 4 | 2 | 5 | 5 | 5 | 4 | 4 | 5
7 | CN1CC(O)N(c2cc(C(C)(C)F)ccn2)C1=O (stereo not drawn) [Compound A38] | 5 | 4 | 5 | 4 | 4 | 0 | 5 | 5 | 5 | 5 | 4 | 5
8 | COc1cnc(N2C(=O)N(C)CC2O)cc1C(F)(F)F (stereo not drawn) [Compound A39] | 5 | 4 | 5 | 4 | 4 | 2 | 5 | 5 | 5 | 5 | 4 | 5
9 | Cc1cnc(N2C(=O)N(C)CC2O)cc1C(F)(F)F (stereo not drawn) [Compound A40] | 5 | 5 | 5 | 4 | 4 | 4 | 5 | 5 | 5 | 5 | 4 | 5
